# In patent US9458123B2, “Methods, pharmaceutical compositions, therapeutic systems, and compounds for treating B cell malignancies” (University of Rochester, priority 2012, dated 2016):
# “Also recorded” adds a separate entry of the source.
# Legend:
# Assay type in all cases: cell-based
# [1] = tested on: PMA-induced NF-κB activation in 293T-NF-luc cells; experiment: NF-κB luciferase reporter assay, PMA stimulation; settings: PMA 100 ng/ml, 6 hours
# Description: In FIG. 1B, 293T-NF-luc cells were pretreated with the indicated concentrations of NSC697923 or DMSO (final concentration 0.2%; control) for 1 hour. The cells were then stimulated with PMA (100 ng/ml) or TNFα(10 ng/ml) for 6 hours, and the green fluorescence (from GFP for normalization) and luciferase activity in the cell lysate were measured. Data were expressed as the percentage activity of the control (mean+/−standard deviation (SD); n=3). […] The cells were harvested at the indicated times after stimulation, and phosphorylation of IKK and IκBα were analyzed by western blotting. Analysis of actin was used as the loading control.
# FIGS. 2A-2D show the effect of NSC697923 related compounds on NF-κB activation induced by PMA. […]
# HEK293T cells were transfected with the pNF-κB luciferase reporter construct, which contains four copies of the NF-κB binding site upstream of firefly luciferase gene (Moran et al., “Protein Kinase C-Associated Kinase can Activate NFkappaB in Both a Kinase-Dependent and a Kinase Independent Manner,” J. Biol. Chem. 278:21526-21533 (2003), which is hereby incorporated by reference in its entirety), together with the pBabe-puro for selection. Individual clones, selected with 1.5 μg/m puromycin, were assessed for NF-κB-luciferase reporter activation by TNFα and PMA. […]
# [2] = tested on: breast cancer MDA-MB231 cells; experiment: Cell viability, trypan blue exclusion assay; settings: 24 hours
# Description: (§1) 1×10^6 cells were plated in 10 cm plates and cultured overnight. The indicated concentrations of NSC697923 were then added into culture medium for 24 hours before the cell viability was analyzed by trypan blue exclusion assay. Shown are the averages from three independent experiments.
# (§2) Apoptosis was assayed using the 7AAD/annexin V apoptosis kit (BD Bioscience) as previously described (Kim et al., “Protein Kinase C-Associated Kinase is Required for NF-kappaB Signaling and Survival in Diffuse Large B-Cell Lymphoma Cells,” Blood 111:1644-1653 (2008), which is hereby incorporated by reference in its entirety). Analysis of the cell cycle distribution of the treated cells was carried out with propidium iodide (PI) and BrdU double staining as previously described (DeRan et al., “Assessing G1-to-S-Phase Progression after Genotoxic Stress,” Methods Mol. Biol. 782:221-230 (2011) and Su et al., “DNA Damage Induces Downregulation of Histone Gene Expression Through the G1 Checkpoint Pathway,” EMBO. J. 23:1133-1143 (2004), each of which is hereby incorporated by reference in its entirety).
# [3] = tested on: osteosarcoma U2OS cells; experiment: Cell viability, trypan blue exclusion assay; settings: 24 hours
# Description: as §1, §2
smiles,measurement,setting,value
"Cc1ccc(S(=O)(=O)c2ccc([N+](=O)[O-])o2)cc1 [NSC697923, 2-nitro-5-tosylfuran]",PMA-induced NF-κB activation (luciferase reporter),[1],selective inhibitory effect; also recorded: inhibits NF-κB activation induced by PMA
same,toxic effects on proliferation and survival compared to DLBCL cells,[2],much less toxic effects
same,toxic effects on proliferation and survival compared to DLBCL cells,[3],much less toxic effects
